Assay results published in patent publication US20260083865A1, “PROSTATE SPECIFIC MEMBRANE ANTIGEN (PSMA) LIGANDS AND USE THEREOF” (priority 2022, published 2026).
Like-named read-outs stand apart in the source and are kept apart here. Numbered stars: 1 amine (or outer) side, 2 acyl side, 3 side chain; on linkers, the order of the positions; unused ones are H or OH. Bridge positions count the residues as written; N and C are the ends. Square brackets hold non-standard residues; d marks the D form. Side chains are listed from the residue outwards. Peptide text beside a SMILES is read from it. * marks the point of attachment. ξ: configuration not given here. DOTA = O=C(O)CN1CCN(CC(=O)O)CCN(CC(=O)*)CCN(CC(=O)O)CC1; Phe(3-CN) = N#Cc1cccc(C[C@H](N)C(=O)O)c1; Phe(4-Cl) = N[C@@H](Cc1ccc(Cl)cc1)C(=O)O; Phe(4-NH2) = Nc1ccc(C[C@H](N)C(=O)O)cc1; Phe(3-Me) = Cc1cccc(C[C@H](N)C(=O)O)c1; Arg(Me) = CNC(=N)NCCC[C@H](N)C(=O)O; X1 = O=C(CC1CCN([*:1])CC1)[*:2]; Lys(Me) = CNCCCC[C@H](N)C(=O)O; Tle = CC(C)(C)[C@H](N)C(=O)O; Dap = NC[C@H](N)C(=O)O; ξD = NC(CC(=O)O)C(=O)O; Aib = CC(C)(N)C(=O)O; CO = O=C([*:1])[*:2]; Guanidino = N=C(N)N*

Columns and labels:
[1] = target: T1, PSMA-expressing C4-2 cells (Homo sapiens, UniProt Q04609); experiment: FACS binding assay (competition with 50 nM PSM-0183); conditions: read-out: pIC50 [C4-2] CAT (converted)
T1 construct: PSMA-expressing C4-2 cells (ATCC, Cat. No. CRL-3314) were cultured in RPMI-1640; host or cells: C4-2 cells
Summary of the method: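 Competition format: fluorescent tracer PSM-0183 (50 nM) displaced from PSMA on C4-2 cells by a test compound titration over 1 h at 4 °C. Bound tracer was quantified as flow-cytometric AF488 median fluorescence after washing. Four-parameter logistic fits of MFI data gave IC50 and pIC50.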

[2] = target: T2, Fc-fusion protein of human PSMA (hPSMA-Fc) (Homo sapiens, UniProt Q04609); experiment: Surface plasmon resonance assay (Biacore T200, single cycle kinetic); type: binding; conditions: hPSMA-Fc, 25° C., read-out: pKD CAT (converted)
T2 construct: purchased Acro Biosystems PSA-H5264
Summary of the method: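 KD, expressed as pKD, came from 1:1 Langmuir fits of reference- and buffer-blank-subtracted SPR data. The runs were single-cycle kinetics at 25° C in HBST/0.1% DMSO over human PSMA-Fc, captured to ~1000 RU on a peptide-coated CM5 surface and regenerated with 10 mM glycine pH 1.5.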

[3] = pIC50 category of FACS binding, C4-2 cells
[4] = pKD category for PSMA SPR activity assay
[5] = FACS binding, PSMA-expressing C4-2 cells, pIC50 category
[6] = FACS binding, C4-2 cells, competition with 50 nM PSM-0183, category
[7] = SPR, single cycle kinetic, category

T1 sequence (Q04609 whole entry): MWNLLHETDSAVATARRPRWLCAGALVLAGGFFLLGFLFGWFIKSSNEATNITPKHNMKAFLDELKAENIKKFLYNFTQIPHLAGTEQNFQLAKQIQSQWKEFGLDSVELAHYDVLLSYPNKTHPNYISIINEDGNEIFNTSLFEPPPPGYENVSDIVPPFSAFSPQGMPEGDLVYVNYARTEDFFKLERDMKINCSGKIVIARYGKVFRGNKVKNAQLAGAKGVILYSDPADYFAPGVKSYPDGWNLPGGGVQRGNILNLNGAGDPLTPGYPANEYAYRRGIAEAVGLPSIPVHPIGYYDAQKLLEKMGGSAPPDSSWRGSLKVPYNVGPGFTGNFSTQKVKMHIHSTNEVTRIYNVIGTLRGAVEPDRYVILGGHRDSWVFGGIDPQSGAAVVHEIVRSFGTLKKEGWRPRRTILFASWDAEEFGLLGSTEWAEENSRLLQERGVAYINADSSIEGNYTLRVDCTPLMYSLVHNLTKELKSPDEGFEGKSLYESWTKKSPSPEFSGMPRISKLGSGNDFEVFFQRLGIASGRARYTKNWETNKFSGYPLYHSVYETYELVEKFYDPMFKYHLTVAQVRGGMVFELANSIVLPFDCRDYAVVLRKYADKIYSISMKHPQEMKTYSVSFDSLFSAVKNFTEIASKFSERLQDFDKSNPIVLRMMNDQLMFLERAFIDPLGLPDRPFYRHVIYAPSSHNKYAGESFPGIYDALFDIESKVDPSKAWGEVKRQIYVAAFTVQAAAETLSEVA
T2 sequence (Q04609 44-750 limits assumed): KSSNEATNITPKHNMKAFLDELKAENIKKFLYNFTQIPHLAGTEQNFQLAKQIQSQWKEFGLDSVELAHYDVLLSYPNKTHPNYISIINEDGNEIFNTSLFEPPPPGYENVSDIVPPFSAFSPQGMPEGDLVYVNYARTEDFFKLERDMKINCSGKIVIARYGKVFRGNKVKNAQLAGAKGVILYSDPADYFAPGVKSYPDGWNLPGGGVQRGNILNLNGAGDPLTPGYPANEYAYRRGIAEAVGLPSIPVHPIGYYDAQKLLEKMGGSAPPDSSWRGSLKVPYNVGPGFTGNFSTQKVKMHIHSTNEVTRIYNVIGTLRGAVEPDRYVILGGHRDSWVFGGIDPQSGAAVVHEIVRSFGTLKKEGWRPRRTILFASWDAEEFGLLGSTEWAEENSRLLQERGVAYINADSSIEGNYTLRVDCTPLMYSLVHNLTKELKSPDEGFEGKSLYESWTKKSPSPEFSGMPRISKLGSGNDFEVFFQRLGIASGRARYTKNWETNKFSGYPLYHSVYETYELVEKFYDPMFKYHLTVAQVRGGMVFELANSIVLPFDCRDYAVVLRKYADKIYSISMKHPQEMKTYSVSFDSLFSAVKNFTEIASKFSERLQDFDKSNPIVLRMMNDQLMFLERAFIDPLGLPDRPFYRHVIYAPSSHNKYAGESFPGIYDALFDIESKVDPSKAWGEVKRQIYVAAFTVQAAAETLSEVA

SMILES	IC50 [1, 3] [nM]	Kd [2, 4] [nM]	other results
CC(=O)N[C@H](C(=O)NC(C)(C)C(=O)N[C@@H](Cc1ccccc1)C(=O)N[C@H]1CSSC[C@@H](C(=O)N[C@H](C(=O)N[C@H](C(=O)N[C@@H](CC(=O)O)C(N)=O)[C@@H](C)O)C(C)(C)C)NC(=O)[C@H](CC(N)=O)NC(=O)[C@H](C)NC(=O)[C@H](CCCNC(=N)N)NC(=O)[C@@H](CCCCN)NC1=O)[C@@H](C)O [PSM-0535, Ac-Thr-Aib-Phe-[Cys-lys-Arg-Ala-Asn-Cys]-Tle-Thr-Asp-NH2] (Ac-T[Aib]FC[dK]RANC[Tle]TD-NH2; disulfide 4-9)	200 to 1260	< 12.6	
CC(=O)N[C@H](C(=O)NC(C)(C)C(=O)N[C@@H](Cc1ccccc1)C(=O)N[C@H]1CSSC[C@@H](C(=O)N[C@H](C(=O)N[C@H](C(=O)N[C@@H](CC(=O)O)C(N)=O)[C@@H](C)O)C(C)(C)C)NC(=O)[C@H](CC(N)=O)NC(=O)[C@H](C)NC(=O)[C@H](CCCNC(=N)N)NC(=O)[C@H](Cc2ccc(N)cc2)NC1=O)[C@@H](C)O [PSM-0439, Ac-Thr-Aib-Phe-[Cys-Aph-Arg-Ala-Asn-Cys]-Tle-Thr-Asp-NH2] (Ac-T[Aib]FC[Phe(4-NH2)]RANC[Tle]TD-NH2; disulfide 4-9)	< 200	126 to 501	
CC(=O)NCCCC[C@@H]1NC(=O)[C@H](CCCCN)NC(=O)[C@@H](NC(=O)[C@H](Cc2ccc(Cl)cc2)NC(=O)C(C)(C)NC(=O)[C@@H](NC(=O)CC2CCN(C(=O)CN3CCN(CC(=O)O)CCN(CC(=O)O)CCN(CC(=O)O)CC3)CC2)[C@@H](C)O)CSSC[C@@H](C(=O)N[C@H](C(=O)N[C@H](C(N)=O)[C@@H](C)O)C(C)(C)C)NC(=O)[C@H](CC(N)=O)NC(=O)C(C)(C)NC1=O [PSM-0341, DOTA-Cmp-Thr-Aib-Pcf-[Cys-Lys-Lys(Ac)-Aib-Asn-Cys]-Tle-Thr-NH2] ({DOTA}-[X1]T[Aib][Phe(4-Cl)]CKK(Ac)[Aib]NC[Tle]T-NH2; disulfide 5-10)			IC50 [1, 5]: 200 to 1260 nM; Kd ([2]; PSMA SPR assay, pKD category): < 12.6 nM
CNC(=N)NCCC[C@@H]1NC(=O)[C@H](CCCCN)NC(=O)[C@@H](NC(=O)[C@H](Cc2ccc(Cl)cc2)NC(=O)C(C)(C)NC(=O)[C@@H](NC(=O)CC2CCN(C(=O)CN3CCN(CC(=O)O)CCN(CC(=O)O)CCN(CC(=O)O)CC3)CC2)[C@@H](C)O)CSSC[C@@H](C(=O)N[C@H](C(=O)N[C@H](C(N)=O)[C@@H](C)O)C(C)(C)C)NC(=O)[C@H](CC(N)=O)NC(=O)C(C)(C)NC1=O [PSM-0351, DOTA-Cmp-Thr-Aib-Pcf-[Cys-Lys-Arg(Me)-Aib-Asn-Cys]-Tle-Thr-NH2] ({DOTA}-[X1]T[Aib][Phe(4-Cl)]CK[Arg(Me)][Aib]NC[Tle]T-NH2; disulfide 5-10)			IC50 [1, 5]: < 200 nM; Kd ([2]; PSMA SPR assay, pKD category): < 12.6 nM
CNCCCC[C@@H]1NC(=O)[C@@H](NC(=O)[C@H](Cc2cccc(C)c2)NC(=O)C(C)(C)NC(=O)[C@@H](NC(=O)CC2CCN(C(=O)CN3CCN(CC(=O)O)CCN(CC(=O)O)CCN(CC(=O)O)CC3)CC2)[C@@H](C)O)CSSC[C@@H](C(=O)N[C@H](C(N)=O)C(C)(C)C)NC(=O)[C@H](CC(N)=O)NC(=O)C(C)(C)NC(=O)[C@H](CCCNC(=N)NC)NC1=O [PSM-0503, DOTA-Cmp-Thr-Aib-Mmf-[Cys-Lys(Me)-Arg(Me)-Aib-Asn-Cys]-Tle-NH2] ({DOTA}-[X1]T[Aib][Phe(3-Me)]C[Lys(Me)][Arg(Me)][Aib]NC[Tle]-NH2; disulfide 5-10)	< 200	12.6 to 126	
C[C@@H](O)[C@H](NC(=O)CN1CCN(CC(=O)O)CCN(CC(=O)O)CCN(CC(=O)O)CC1)C(=O)NC(C)(C)C(=O)N[C@@H](Cc1ccccc1)C(=O)N[C@H]1CSSC[C@@H](C(=O)N[C@H](C(N)=O)C(C)(C)C)NC(=O)[C@H](CC(N)=O)NC(=O)C(C)(C)NC(=O)[C@H](CCCNC(=N)N)NC(=O)[C@H](CCCCN)NC1=O [PSM-0184, DOTA-Thr-Aib-Phe-[Cys-Lys-Arg-Aib-Asn-Cys]-Tle-NH2] ({DOTA}-T[Aib]FCKR[Aib]NC[Tle]-NH2; disulfide 4-9)			IC50 [1, 6]: < 200 nM; Kd [2, 7]: 12.6 to 126 nM
CNCCCC[C@@H]1NC(=O)[C@@H](NC(=O)[C@H](Cc2ccc(Cl)cc2)NC(=O)C(C)(C)NC(=O)[C@@H](NC(=O)CC2CCN(C(=O)CN3CCN(CC(=O)O)CCN(CC(=O)O)CCN(CC(=O)O)CC3)CC2)[C@@H](C)O)CSSC[C@@H](C(=O)N[C@H](C(N)=O)C(C)(C)C)NC(=O)[C@H](CC(N)=O)NC(=O)C(C)(C)NC(=O)[C@H](CCCNC(=N)N)NC1=O [PSM-0200, DOTA-Cmp-Thr-Aib-Pcf-[Cys-Lys(Me)-Arg-Aib-Asn-Cys]-Tle-NH2] ({DOTA}-[X1]T[Aib][Phe(4-Cl)]C[Lys(Me)]R[Aib]NC[Tle]-NH2; disulfide 5-10)			IC50 [1, 6]: < 200 nM; Kd [2, 7]: < 12.6 nM
CSCC[C@H](N)C(=O)N[C@H](C(=O)N[C@@H](C)C(=O)N[C@@H](Cc1ccccc1)C(=O)N[C@H]1CSSC[C@@H](C(=O)N[C@@H](CC(C)C)C(=O)N[C@H](C(=O)NC(CC(=O)O)C(=O)NCC(=O)N[C@@H](CO)C(N)=O)[C@@H](C)O)NC(=O)[C@H](CC(N)=O)NC(=O)[C@H](C)NC(=O)[C@H](CCCNC(=N)N)NC(=O)[C@H](CCCCN)NC1=O)[C@@H](C)O (stereo partly drawn) [PSM-0498, H-Met-Thr-Ala-Phe-[Cys-Lys-Arg-Ala-Asn-Cys]-Lou-Thr-Asp-Gly-Ser-NH2] (H-MTAFCKRANCLT[ξD]GS-NH2; disulfide 5-10)	< 200	< 12.6	
C[C@@H](O)[C@H](NC(=O)[C@@H](NC(=O)[C@@H]1CSSC[C@H](NC(=O)[C@H](Cc2ccc(Cl)cc2)NC(=O)C(C)(C)NC(=O)CN2CCN(CC(=O)O)CCN(CC(=O)O)CCN(CC(=O)O)CC2)C(=O)N[C@@H](CCCCN)C(=O)N[C@@H](CCCNC(=N)N)C(=O)NC(C)(C)C(=O)N[C@@H](CC(N)=O)C(=O)N1)C(C)(C)C)C(N)=O [PSM-0290, DOTA-Aib-Pcf-[Cys-Lys-Arg-Aib-Asn-Cys]-Tle-Thr-NH2] ({DOTA}-[Aib][Phe(4-Cl)]CKR[Aib]NC[Tle]T-NH2; disulfide 3-8)			IC50 [1, 5]: > 3160 nM; Kd ([2]; PSMA SPR assay, pKD category): > 501 nM
CNCCCC[C@@H]1NC(=O)[C@@H](NC(=O)[C@H](Cc2cccc(C#N)c2)NC(=O)C(C)(C)NC(=O)[C@@H](NC(=O)CC2CCN(C(=O)CN3CCN(CC(=O)O)CCN(CC(=O)O)CCN(CC(=O)O)CC3)CC2)[C@@H](C)O)CSSC[C@@H](C(=O)N[C@H](C(N)=O)C(C)(C)C)NC(=O)[C@H](CC(N)=O)NC(=O)C(C)(C)NC(=O)[C@H](CCCNC(=N)NC)NC1=O [PSM-0459, DOTA-Cmp-Thr-Aib-Mnf-[Cys-Lys(Me)-Arg(Me)-Aib-Asn-Cys]-Tle-NH2] ({DOTA}-[X1]T[Aib][Phe(3-CN)]C[Lys(Me)][Arg(Me)][Aib]NC[Tle]-NH2; disulfide 5-10)	200 to 1260	12.6 to 126	
CC(=O)NC(=N)NCCC[C@@H]1NC(=O)[C@H](CCCCN)NC(=O)[C@@H](NC(=O)[C@H](Cc2ccc(Cl)cc2)NC(=O)C(C)(C)NC(=O)CC2CCN(C(=O)CN3CCN(CC(=O)O)CCN(CC(=O)O)CCN(CC(=O)O)CC3)CC2)CSSC[C@@H](C(=O)N[C@H](C(=O)N[C@H](C(N)=O)[C@@H](C)O)C(C)(C)C)NC(=O)[C@H](CC(N)=O)NC(=O)C(C)(C)NC1=O [PSM-0223, DOTA-Cmp-Aib-Pcf-[Cys-Lys-Arg(Ac)-Aib-Asn-Cys]-Tle-Thr-NH2] ({DOTA}-[X1][Aib][Phe(4-Cl)]CKR(Ac)[Aib]NC[Tle]T-NH2; disulfide 4-9)			IC50 [1, 6]: 200 to 1260 nM; Kd [2, 7]: 12.6 to 126 nM
CC(=O)N[C@H](C(=O)NC(C)(C)C(=O)N[C@@H](Cc1ccccc1)C(=O)N[C@H]1CSSC[C@@H](C(=O)N[C@H](C(=O)N[C@H](C(N)=O)[C@@H](C)O)C(C)(C)C)NC(=O)[C@H](CC(N)=O)NC(=O)[C@H](CCCCNC(=O)CN2CCN(CC(=O)O)CCN(CC(=O)O)CCN(CC(=O)O)CC2)NC(=O)[C@H](CCCNC(=N)N)NC(=O)[C@H](CCCCN)NC1=O)[C@@H](C)O [PSM-0326, Ac-Thr-Aib-Phe-[Cys-Lys-Arg-Lys(DOTA)-Asn-Cys]-Tle-Thr-NH2] (Ac-T[Aib]FCKRK(DOTA)NC[Tle]T-NH2; disulfide 4-9)			IC50 [1, 5]: < 200 nM; Kd ([2]; PSMA SPR assay, pKD category): 12.6 to 126 nM
CCCC[C@H](NC(=O)[C@@H]1CSSC[C@H](NC(=O)[C@H](Cc2ccccc2)NC(=O)[C@H](C)NC(=O)[C@@H](NC(C)=O)[C@@H](C)O)C(=O)N[C@@H](CCCCN)C(=O)N[C@@H](CCCNC(=N)N)C(=O)N[C@@H](C)C(=O)N[C@@H](CC(N)=O)C(=O)N1)C(=O)N[C@H](C(=O)N[C@H](CC(=O)O)C(N)=O)[C@@H](C)O [PSM-0389, Ac-Thr-Ala-Phe-[Cys-Lys-Arg-Ala-Asn-Cys]-Nle-Thr-asp-NH2]	< 200	12.6 to 126	
C[C@@H](O)[C@H](NC(=O)[C@@H](NC(=O)[C@@H]1CSSC[C@H](NC(=O)[C@H](Cc2ccc(Cl)cc2)NC(=O)C(C)(C)NC(=O)[C@@H](NC(=O)CC2CCN(C(=O)CN3CCN(CC(=O)O)CCN(CC(=O)O)CCN(CC(=O)O)CC3)CC2)[C@@H](C)O)C(=O)N[C@@H](CCCCN)C(=O)N[C@@H](CNC(=O)NC(=N)N)C(=O)NC(C)(C)C(=O)N[C@@H](CC(N)=O)C(=O)N1)C(C)(C)C)C(N)=O [PSM-0546, DOTA-Cmp-Thr-Aib-Pcf-[Cys-Lys-Urr-Aib-Asn-Cys]-Tle-Thr-NH2] ({DOTA}-[X1]T[Aib][Phe(4-Cl)]CK[Dap]([CO-Guanidino])[Aib]NC[Tle]T-NH2; disulfide 5-10)	< 200	< 12.6	
